Results: patent publication US20230371814A1, “WIRELESS THERANOSTIC SMART CONTACT LENS CAPABLE OF MEASURING AND ADJUSTING INTRAOCULAR PRESSURE IN GLAUCOMA PATIENTS” (POSTECH RESEARCH AND BUSINESS DEVELOPMENT FOUNDATION, priority 2022, published 2023)

Experiment: In vitro release of timolol from the drug reservoir of the flexible DDS
Assay type: physicochemical
Protocol: An electrochemical reaction of gold was examined in vitro in PBS (pH 7.4) and artificial tears having a constant voltage of 1.85 V. Timolol was released from the drug reservoir by applying a voltage of 1.85 V to an anode and a cathode of a DDS for 5 minutes. A concentration of the released timolol was quantified with a UV-vis spectrometer at an absorbance wavelength of 259 nm.

- drug (timolol) released (absence of the PVA layer): less than 50%
- timolol released without electrical triggering (for 90 minutes, without electrical triggering): less than 5%
- drug (timolol) dissolution (presence of PVA): completely dissolved
- time until almost all of the timolol was completely released (presence of PVA): ≤ 30 min
- timolol released within 5 minutes (presence of PVA, within 5 minutes): less than 85%
- cumulative release of timolol at each activation (three reservoirs activated at 10, 25 and 40 minutes): significantly enhanced
- cumulative release of timolol before activation (three reservoirs, until 10 minutes (before first activation)): no significant release
Structure (SMILES): CC(C)(C)NC[C@H](O)COc1nsnc1N1CCOCC1 [timolol]
